Patent publication US10398713B2, “Compositions and methods for the treatment of neurodegenerative and other diseases” (Glialogix, Inc., priority 2013, dated 2019)

Legend:
xCT (SLC7A11) = assay: Quantitative immunohistochemistry of xCT expression in the spinal cord of SOD1 mice; type: in vivo, mouse; conditions: SOD1 mice day 85 and day 100; 200 mg/kg IP two times per day from day 50; vs vehicle
Protocol: (§1) Two ages of mice were chosen for this analysis: day 85, when SOD1 mice show no overt sign of the ALS-like symptomology, and day 100, when SOD1 mice typically begin displaying the first signs of ALS-like symptomology, such as partial collapse of leg extension towards lateral midline (weakness) or trembling of hind legs during a tail suspension test. For the immunohistochemical studies, a total of 48 mice were divided into 6 cohorts of 8 mice each (4 females and 4 males) as shown in Table 5.
(§2) 5 mL of 0.1 N NaOH was added and the tube gently sonicated. Approximately 140 μL of 1 N HCl was then added to bring the pH to 8.00. The resulting 20 mg/mL solution was delivered by intraperitoneal injection at 10 ml/kg. Vehicle treated mice were administered saline.
Mice were sacrificed by CO2 asphyxiation according to IACUC approved protocols. The spinal cord was extruded with cold PBS into a bath of cold PBS from the vertebral column of mice using an 18 gauge needle inserted in the sacral vertebral column to a friction fit. Upon extrusion, the spinal cord tissue was rinsed and dropped into 4% paraformaldehyde for 24 hours at room temperature (RT, approximately 25° C.). The tissue was then transferred to a 1× phosphate buffered saline (PBS) solution. Samples were then processed by TissueTek processors for paraffin embedding. […] The key parameter measured and reported is area fraction. […]

activated astrocytes = assay: Quantitative immunohistochemistry of astrocyte activation (anti-GFAP) in the spinal cord of SOD1 mice; type: in vivo, mouse
Protocol: as §1, §2
(§3) Mice were sacrificed by CO2 asphyxiation according to IACUC approved protocols. The spinal cord was extruded with cold PBS into a bath of cold PBS from the vertebral column of mice using an 18 gauge needle inserted in the sacral vertebral column to a friction fit. Upon extrusion, the spinal cord tissue was rinsed and dropped into 4% paraformaldehyde for 24 hours at room temperature (RT, approximately 25° C.). The tissue was then transferred to a 1× phosphate buffered saline (PBS) solution. Samples were then processed by TissueTek processors for paraffin embedding. Spinal cord samples were then embedded in paraffin blocks and oriented for transverse sectioning. Spinal cord samples were sectioned at 10 microns thickness. Three representative sections were cut from lumbar, thoracic and cervical regions of the spinal cord. Samples were pretreated with Pronase for 20 minutes at RT, followed by treatment with 3% H2O2 for 12 minutes at RT. Horse serum was added to 2% and samples incubated for 20 minutes at RT. The samples were then incubated with the primary antibody (Anti-xCT; purchased from Abcam (Cambridge, Mass.); Catalog #Ab37185; diluted 1:500 in PBS) overnight at 4° C. The secondary antibody (Biotin labeled goat anti-rabbit IgG; 1:500 dilution in PBS) was then added and the reaction incubated overnight at RT. Reaction products were developed using the Vector ABC system (Vector Labs, Burlingame, Calif.) using avidin-conjugated horseradish peroxidase. xCT expression was visualized by addition of the chromogenic substrate DAB (3,3′-diaminobenzidine) for 10 minutes at RT. Each stained section was imaged at objectives: 4×, 10×, 20× and 40×. For each objective image, light parameters were optimized and kept consistent across all sections. For SLC7A11 analysis, all images that were captured at 20× were then imported into ImageJ freeware (NIH, Bethesda, Md.). A maximum entropy threshold algorithm was applied to all images in a completely blinded fashion to filter out all pixels that were not stained as DAB positive. The key parameter measured and reported is area fraction. Area fraction is the proportion of total pixels that are DAB positive in the ventral horn of the spinal cord. All statistical analyses were performed using JMP® 7.0, SAS Institute, Inc. Area fraction was compared with respect to treatment using 1-way ANOVA analysis, with a p-value of 0.05 considered significant.
(§4) The same test mice, spinal cord preparations and methods of analysis used in the neuroinflammatory study were identical to those used in the xCT quantitation study. Two neuroinflammatory cell populations were quantitated: (1) activated microglial cells using an antibody to the F4/80 antigen, and (2) activated astrocytes, using an antibody to the GFAP antigen. For each objective image, light parameters were optimized and kept consistent across all sections. Images that were captured at 20× were then imported into ImageJ freeware (NIH, Bethesda, Md.). A maximum entropy threshold algorithm was applied to all images in a completely blinded fashion to filter out all pixels that were not stained as DAB positive. 20× images were analyzed in a blinded fashion and mean area fraction occupied by stain was tabulated. […]

[1] = test system: activated microglial cells; assay: Quantitative immunohistochemistry of microglial activation (anti-F4/80) in the spinal cord of SOD1 mice; type: in vivo, mouse; conditions: Microglia
Protocol: as §1, §2, §3, §4

[2] = SOD1, mouse, in vivo, ip, 200 mg/kg
[3] = 2 g oral dose; humans with ABCG2 genotype (421C/C); cited from earlier work
in vivo = conditions: SOD1, mouse, spinal cord/plasma, ip, 200 mg/kg
[4] = Combined (cervical, thoracic, lumbar), Day 100
[5] = Lumbar, Day 100, listed as sulfasalazine

**Q.** For `O=C(O)c1cc(/N=N/c2ccc(S(=O)(=O)Nc3ccccn3)cc2)ccc1O` [Sulfasalazine, 2-hydroxy-5-[(E)-2-{4-[(pyridin-2-yl)sulfamoyl]phenyl}diazen-1-yl]benzoic acid], which “effect on xCT expression (area fraction, ventral horn of spinal cord)” value (xCT (SLC7A11)) is on record?
**A.** The value was “did not have a significant effect”.

**Q.** And the “Decreased activation in sulfasalazine treated SOD1 vs. vehicle treated SOD1 mice” value (“Decreased activation” for short) (activated astrocytes; Cervical, Day 85)?
**A.** The value was “No decrease”.

**Q.** And the “Decreased activation” value (activated astrocytes; Cervical, Day 100, p < 0.01)?
**A.** The value was “significantly lowered”.

**Q.** And the “Decreased activation” value (activated astrocytes; Cervical, Day 100, p < 0.01, listed as sulfasalazine)?
**A.** The value was “Strong decrease”.

**Q.** And the “Decreased activation” value (activated astrocytes; Combined (cervical, thoracic, lumbar), Day 85, p < 0.05)?
**A.** Its value is “Decrease”.

**Q.** What about the “Decreased activation” value (activated astrocytes; [4]) of the same molecule?
**A.** Its value is “Trend”.

**Q.** And the “Decreased activation” value (activated astrocytes; Lumbar, Day 85, p < 0.05)?
**A.** The value was “significantly lowered”.

**Q.** What about the “Decreased activation” value (activated astrocytes; Lumbar, Day 85, p < 0.05, listed as sulfasalazine) of the same molecule?
**A.** Its value is “Decrease”.

**Q.** And the “Decreased activation” value (activated astrocytes; Lumbar, Day 100)?
**A.** The value was “did not effect”.

**Q.** And the “Decreased activation” value (activated astrocytes; [5])?
**A.** Its value is “No decrease”.

**Q.** And the “Decreased activation” value (activated astrocytes; Thoracic, Day 85)?
**A.** The value was “Trend”.

**Q.** And the “Decreased activation” value (activated astrocytes; Thoracic, Day 100)?
**A.** The value was “No decrease”.

**Q.** And the “Decreased activation” value ([1]; Cervical, Day 85, p < 0.01)?
**A.** Its value is “significantly decreased”.

**Q.** What about the “Decreased activation” value ([1]; Cervical, Day 85, p < 0.01, listed as sulfasalazine) of the same molecule?
**A.** Its value is “Strong decrease”.

**Q.** And the “Decreased activation” value ([1]; Cervical, Day 100)?
**A.** The value was “trend towards decreased”.

**Q.** And the “Decreased activation” value ([1]; Cervical, Day 100, listed as sulfasalazine)?
**A.** The value was “Trend”.

**Q.** What about the “Decreased activation” value ([1]; Combined (cervical, thoracic, lumbar), Day 85) of the same molecule?
**A.** The value was “Trend”.

**Q.** And the “Decreased activation” value [1, 4]?
**A.** Its value is “No decrease”.

**Q.** What about the “Decreased activation” value ([1]; Lumbar, Day 85) of the same molecule?
**A.** The value was “reduced microglial activation in the lumbar region in SOD1 mice, although this effect did not reach statistical significance”.

**Q.** And the “Decreased activation” value ([1]; Lumbar, Day 85, listed as sulfasalazine)?
**A.** Its value is “Trend”.

**Q.** What about the “Decreased activation” value ([1]; Lumbar, Day 100) of the same molecule?
**A.** The value was “did not affect”.

**Q.** And the “Decreased activation” value [1, 5]?
**A.** Its value is “No decrease”.

**Q.** What about the “Decreased activation” value ([1]; Thoracic, Day 85) of the same molecule?
**A.** Its value is “No decrease”.

**Q.** What about the “Decreased activation” value ([1]; Thoracic, Day 100) of the same molecule?
**A.** The value was “No decrease”.

**Q.** What about the “time therapeutically relevant concentrations were present in the spinal cord” value [2] of the same molecule?
**A.** The value was 2 to 2.5 h.

**Q.** What about the “time plasma levels above 10 μg/ml were maintained” value [3] of the same molecule?
**A.** The value was “approximately 7 hours”.

**Q.** And the Kp at 15 min (in vivo)?
**A.** The Kp at 15 min was 0.16.
